Measurements reported in patent publication US20120329860A1, “Uses of Beta-Nicotinamide Adenine Dinucleotide” (MEDICAL COLLEGE OF GEORGIA INSTITUTE, INC, priority 2010, published 2012).

Columns and labels:
[1] = molecular target: T1, P2Y1 receptor (Homo sapiens, UniProt P47900); test: P2Y1 receptor antagonist study (TER, HPAEC); format: cell-based; parameters: dose or concentration left out as unconfirmed; details: MRS2279 pretreatment 30 min, then b-NAD
T1 construct: To deplete the mRNA content of endogenous P2Y1, P2Y11 or EPAC1; endogenous in cells; host or cells: HPAEC (human pulmonary artery endothelial cells)
Procedure: (§1) The barrier properties of endothelial cells monolayers were characterized using a highly sensitive electrical cell-substrate impedance sensing (ECIS) instrument to measure transendothelial electrical resistance (TER) as described (Birukova et al., 2004a. Microvasc Res 67(1):64-77; Kolosova et al., 2005, Circ Res 97(2):115-124). The TER data was normalized to the initial voltage.
(§2) HPAEC were pretreated with receptor-specific antagonists, MRS2279 or NF157, for 30 min, and then challenged with […] b-NAD. TER was registered throughout to examine the barrier enhancement induced by b-NAD in the presence or absence of the antagonists.

[2] = system: LPS-induced mortality in mice; test: LPS-induced mortality / survival; format: in vivo; details: LPS alone, within four days
Procedure: Mice were injected with β-NAD (100 mg/kg, i.p) or vehicle (saline, i.p) 10 min after LPS (20 mg/kg, i.p) challenge. As a treatment strategy, β-NAD was given twice a day (i.p) for 4 days. […]

[3] = system: HPAEC monolayers; test: Transendothelial electrical resistance (TER) by ECIS in HPAEC monolayers; format: cell-based, human; details: for TER of HPAEC monolayers after cytoskeleton-disrupting agent: agent alone, pretreatment 30 min
Procedure: Human pulmonary artery endothial cells (HPAEC) and EBM-2 complete medium were purchased from Lonza (Allendale, N.J.). HPAEC were cultured according to the manufacturer's protocol and utilized at early (3-6) passages.
as §1

[4] = system: LPS-induced ALI in mice; test: Evans Blue Dye-albumin (EBD) lung permeability; format: in vivo; details: LPS alone treated mice; vehicle 4.57
Procedure: Mice were anesthetized with ketamine (150 mg/kg) and acetylpromazine (15 mg/kg) intraperitoneally (i.p.) before the exposure of the trachea via neck incision and intubation with 20-guage catheter and the right internal jugular vein was exposed via right chest incision for PBS or b-NAD installation. The mice were randomly divided into groups. LPS or sterile saline was instilled intratracheally (i.t.) via a 20-gauge catheter. Simultaneously, mice received either b-NAD (5.4 mg/kg, equivalent to final calculated plasma concentration […] or PBS in the control group intravenously (i.v.) through the internal jugular vein (IJ). The animals were allowed to recover for 18 hr. EBD was given through the IJ 2 hr prior to termination of the experiment. At termination, bronchoalveolar lavage (BAL) was collected. BAL was 1ml of 10% HBSS through the endotracheal catheter immediately on sacrifice with aspiration. BAL was immediately centrifuged and processed. After the BAL, ethylenediaminetetraacetic acid (EDTA) was used to flush the lungs of blood via the right heart ventricle and the lungs were then harvested. BAL and lungs were collected and stored at −70° C. for evaluation of lung injury.
Measurement of EBD concentration in the lungs was performed by injection of EBD (20 mg/kg) into the right internal jugular vein 2 hr before the termination of the experiment to assess the vascular leak. Lungs free of blood were weighed and snap frozen in liquid nitrogen. The left lung was weighed and homogenized, then incubated with two volumes of formamide (18 hr, 60° C.) and centrifuged (5000 g, 30 min, 20° C.). The extravasated EBD concentration (mg/g, lung) in the lung homogenate was calculated against a standard curve. In a separate experiment the EBD was injected into the right internal jugular vein as described above at 2 hrs prior to termination of the experiment and the left lung gross anatomy view was photographed with a Leica NCL150 Camera.

[5] = molecular target: T2, P2Y11 receptor (Homo sapiens, UniProt Q96G91); test: P2Y11 receptor antagonist study (TER, HPAEC); format: cell-based; details: 1 mM NF157 pretreatment 30 min, then b-NAD
T2 construct: To deplete the mRNA content of endogenous P2Y1, P2Y11 or EPAC1; endogenous in cells; host or cells: HPAEC (human pulmonary artery endothelial cells)
T2 sequence (Q96G91 1-374): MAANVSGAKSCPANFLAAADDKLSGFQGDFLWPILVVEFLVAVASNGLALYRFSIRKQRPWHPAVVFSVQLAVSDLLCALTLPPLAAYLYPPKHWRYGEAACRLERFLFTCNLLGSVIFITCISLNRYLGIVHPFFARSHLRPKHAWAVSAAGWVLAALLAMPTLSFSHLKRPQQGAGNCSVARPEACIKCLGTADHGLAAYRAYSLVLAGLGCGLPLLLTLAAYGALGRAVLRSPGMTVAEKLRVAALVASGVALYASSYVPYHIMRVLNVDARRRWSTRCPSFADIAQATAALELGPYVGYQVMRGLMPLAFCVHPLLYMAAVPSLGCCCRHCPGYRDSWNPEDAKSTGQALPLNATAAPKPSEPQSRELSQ
Procedure: as §1, §2

[6] = system: PKA; test: PKA inhibitor test in ECIS/TER assay (HPAEC); format: cell-based, human; details: H-89 pretreatment 30 min, then 50 μM β-NAD
Text: as §1
To elucidate the signaling pathways involved in β-NAD-induced HPAEC TER increase, the cAMP-activated protein kinase A (PKA) and the nucleotide exchange protein directly activated by cAMP (EPAC) pathways were examined. Since activation of P2Y11 receptors may lead to the Gas-mediated pathway including direct stimulation of adenylate cyclase, elevation of cAMP levels and cAMP-dependent activation of PKA, a simple inhibitory test was performed to confirm an activation of PKA and its participation in β-NAD-induced HPAEC barrier enhancement. For this test, H-89, an inhibitor of PKA activity, was used in ECIS experiments. HPAEC were pre-treated with H-89 for 30 min and then challenged with β-NAD and the effect of β-NAD-mediated barrier enhancement was determined using TER measurement.

T1 sequence (P47900 whole entry): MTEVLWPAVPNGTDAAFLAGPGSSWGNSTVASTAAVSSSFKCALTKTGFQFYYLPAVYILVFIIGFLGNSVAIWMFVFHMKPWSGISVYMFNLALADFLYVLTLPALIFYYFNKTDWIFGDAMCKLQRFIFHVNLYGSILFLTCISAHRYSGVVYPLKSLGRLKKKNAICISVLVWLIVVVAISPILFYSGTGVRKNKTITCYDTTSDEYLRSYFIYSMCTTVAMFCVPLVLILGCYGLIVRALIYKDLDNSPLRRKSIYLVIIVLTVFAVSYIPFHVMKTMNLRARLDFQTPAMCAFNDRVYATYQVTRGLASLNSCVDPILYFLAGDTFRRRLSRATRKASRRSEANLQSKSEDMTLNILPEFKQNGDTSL

For CNc1nc(Cl)nc2c1ncn2[C@H]1C[C@@H](OP(=O)(O)O)[C@]2(COP(=O)(O)O)C[C@H]12 [MRS2279], the “effect of P2Y1 antagonist on β-NAD-induced TER increase” value [1] was “attenuated the β-NAD-induced TER increase”.
With “lipopolysaccharide [LPS, reference compound]” the mortality [2] was 100%, the “decrease in TER from the baseline” value ([3]; LPS (100 ng/ml) alone) was roughly 60% and the “EBD-albumin in lung (average)” value [4] was 16.81 µg/g.
O=C(Nc1cccc(C(=O)Nc2cc(C(=O)Nc3ccc(S(=O)(=O)O)c4cc(S(=O)(=O)O)cc(S(=O)(=O)O)c34)ccc2F)c1)Nc1cccc(C(=O)Nc2cc(C(=O)Nc3ccc(S(=O)(=O)O)c4cc(S(=O)(=O)O)cc(S(=O)(=O)O)c34)ccc2F)c1 [NF157] was tested, and the “effect of P2Y11 antagonist on β-NAD-induced TER increase” value [5] was “attenuated the β-NAD-induced TER increase more significantly”.
COC(=O)Nc1nc2ccc(C(=O)c3cccs3)cc2[nH]1 [nocodazole, reference compound] was tested, and the “TER of HPAEC monolayers after cytoskeleton-disrupting agent” value [3] was “compromises endothelial cell barrier integrity”.
With C=C1[C@@H](C)[C@H]2[C@H](Cc3ccccc3)NC(=O)[C@]23OC(=O)/C=C/[C@H](O)CCC[C@@H](C)C/C=C/[C@H]3[C@@H]1O [cytochalasin B, reference compound] the “TER of HPAEC monolayers after cytoskeleton-disrupting agent” value [3] was “produced a prompt attenuation in TER”.
For pneumolysin [PLY, reference compound], the “decrease in TER from the baseline” value ([3]; PLY alone (125 ng/ml)) was roughly 80%.
For O=S(=O)(NCCNC/C=C/c1ccc(Br)cc1)c1cccc2cnccc12 [H-89], the “effect of PKA inhibitor on β-NAD-induced TER increase” value [6] was “attenuated the β-NAD-induced HPAEC TER increase”.
